Test results published in ChEMBL document CHEMBL1201862, “PubChem BioAssay data set” (2004).
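Tested at 5 concentrations; 48 h exposure; 96-well plates; endpoints linearly interpolated, else capped at highest concentration. GI50: concentration for 50% inhibition of growth.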 Activity calls are given as the source filed them. Rule as the data show it: active = GI50 up to about 1.1 µM and inactive = higher.

Tests used:
Test in all cases: NCI tumour cell line growth inhibition, 48 h
IGROV-1 = test system: IGROV-1
SK-MEL-2 = test system: SK-MEL-2
SNB-75 = test system: SNB-75
SW-620 = test system: SW-620
HCC 2998 = test system: HCC 2998
RPMI-8226 = test system: RPMI-8226
MDA-N = test system: MDA-N
SN12C = test system: SN12C
Malme-3M = test system: Malme-3M
COLO 205 = test system: COLO 205
UACC-257 = test system: UACC-257
RXF 393 = test system: RXF 393
TK-10 = test system: TK-10
NCI/ADR-RES = test system: NCI/ADR-RES
SR = test system: SR
SF-268 = test system: SF-268
SK-OV-3 = test system: SK-OV-3
LOX IMVI = test system: LOX IMVI
CCRF-CEM = test system: CCRF-CEM
SK-MEL-5 = test system: SK-MEL-5

SMILES | GI50 (IGROV-1) | GI50 (SK-MEL-2) | GI50 (SNB-75) | GI50 (SW-620) | GI50 (HCC 2998) | GI50 (RPMI-8226) | GI50 (MDA-N) | GI50 (SN12C) | GI50 (Malme-3M) | GI50 (COLO 205) | GI50 (UACC-257) | GI50 (RXF 393) | GI50 (TK-10) | GI50 (NCI/ADR-RES) | GI50 (SR) | GI50 (SF-268) | GI50 (SK-OV-3) | GI50 (LOX IMVI) | GI50 (CCRF-CEM) | GI50 (SK-MEL-5)
CC(C)NC(=O)OCc1c(COC(=O)NC(C)C)c(-c2cc[n+](COC(=O)C3CC3)cc2)n2c1CCC2 | > 100 µM (inactive) | > 100 µM (inactive) | > 100 µM (inactive) | > 100 µM (inactive) | > 100 µM (inactive) | > 100 µM (inactive) | > 100 µM (inactive) | > 100 µM (inactive) | > 100 µM (inactive) | > 100 µM (inactive) | > 100 µM (inactive) | 50.1 µM (inactive) | > 100 µM (inactive) | > 100 µM (inactive) | > 100 µM (inactive) | > 100 µM (inactive) | > 100 µM (inactive) | > 100 µM (inactive) | > 100 µM (inactive) | > 100 µM (inactive)
CC1(c2nc3ccccc3[nH]2)CCC(C(=O)O)C(C)(C)O1 (stereo not drawn) | > 100 µM (inactive) | > 100 µM (inactive) | 39.8 µM (inactive) | > 100 µM (inactive) | > 100 µM (inactive) | > 100 µM (inactive) | > 100 µM (inactive) | > 100 µM (inactive) | > 100 µM (inactive) | > 100 µM (inactive) | > 100 µM (inactive) | > 100 µM (inactive) | > 100 µM (inactive) | > 100 µM (inactive) | > 100 µM (inactive) | > 100 µM (inactive) | > 100 µM (inactive) | > 100 µM (inactive) | > 100 µM (inactive) | > 100 µM (inactive)
Cc1ccc(N2C(N)=C(C#N)C(C#N)(C#N)C2c2ccccc2)cc1 (stereo not drawn) | 6.67 µM (inactive) | 13.6 µM (inactive) | 13.2 µM (inactive) | 4.32 µM (inactive) | 13 µM (inactive) | 11.4 µM (inactive) | 3.08 µM (inactive) | 14.4 µM (inactive) | 11.5 µM (inactive) | 10.2 µM (inactive) | 15.6 µM (inactive) | 6.64 µM (inactive) | 14.4 µM (inactive) | 17 µM (inactive) | 8.65 µM (inactive) | 24.9 µM (inactive) | 16.7 µM (inactive) | 11.5 µM (inactive) | 3 µM (inactive) | 8.63 µM (inactive)
Cc1cccc(-c2cc(O)c3cc(C)cnc3n2)c1 | 0.54 µM (active) | 0.224 µM (active) | 0.157 µM (active) | 0.0475 µM (active) | 0.44 µM (active) | 0.239 µM (active) | 0.0194 µM (active) | 0.571 µM (active) | 0.111 µM (active) | 0.105 µM (active) | – | 0.229 µM (active) | 5.52 µM (inactive) | 0.122 µM (active) | 0.0368 µM (active) | 0.724 µM (active) | 0.272 µM (active) | 0.478 µM (active) | 0.202 µM (active) | 0.12 µM (active)
COc1cc(S(=O)(=O)Nc2ccc(-c3csc(N4C(=O)CSC4c4ccccc4)n3)cc2)ccc1Cl (stereo not drawn) | 51.4 µM (inactive) | 37.2 µM (inactive) | 67.3 µM (inactive) | 42.4 µM (inactive) | 20.4 µM (inactive) | 24.4 µM (inactive) | 39.9 µM (inactive) | > 100 µM (inactive) | > 100 µM (inactive) | 35.6 µM (inactive) | 40.9 µM (inactive) | 29.2 µM (inactive) | – | > 100 µM (inactive) | 32.3 µM (inactive) | 33.7 µM (inactive) | > 100 µM (inactive) | 30.5 µM (inactive) | 34.2 µM (inactive) | 92.9 µM (inactive)
O=C(O)c1ccccc1CC(Cc1ccc2c(c1)CCC2)C(=O)O (stereo not drawn) | > 100 µM (inactive) | > 100 µM (inactive) | > 100 µM (inactive) | > 100 µM (inactive) | > 100 µM (inactive) | > 100 µM (inactive) | > 100 µM (inactive) | > 100 µM (inactive) | > 100 µM (inactive) | > 100 µM (inactive) | > 100 µM (inactive) | > 100 µM (inactive) | > 100 µM (inactive) | > 100 µM (inactive) | 8.07 µM (inactive) | > 100 µM (inactive) | > 100 µM (inactive) | > 100 µM (inactive) | > 100 µM (inactive) | > 100 µM (inactive)
N#CC1(O)CCCCCCCCCCC1 | > 100 µM (inactive) | > 100 µM (inactive) | – | > 100 µM (inactive) | > 100 µM (inactive) | > 100 µM (inactive) | > 100 µM (inactive) | > 100 µM (inactive) | > 100 µM (inactive) | > 100 µM (inactive) | > 100 µM (inactive) | > 100 µM (inactive) | > 100 µM (inactive) | > 100 µM (inactive) | > 100 µM (inactive) | > 100 µM (inactive) | > 100 µM (inactive) | > 100 µM (inactive) | > 100 µM (inactive) | > 100 µM (inactive)
Nc1ccc2c3c1cccc3c(=O)n1c3ccc(Cc4ccc5c(c4)nc4c6ccc(N)c7cccc(c(=O)n54)c76)cc3nc21 | > 100 µM (inactive) | > 100 µM (inactive) | 30.8 µM (inactive) | > 100 µM (inactive) | > 100 µM (inactive) | > 100 µM (inactive) | > 100 µM (inactive) | > 100 µM (inactive) | > 100 µM (inactive) | > 100 µM (inactive) | > 100 µM (inactive) | > 100 µM (inactive) | – | > 100 µM (inactive) | > 100 µM (inactive) | – | > 100 µM (inactive) | > 100 µM (inactive) | > 100 µM (inactive) | > 100 µM (inactive)
O=C(O)[C@@H]1CCCN1 [PROLINE] | > 100 µM (inactive) | > 100 µM (inactive) | 57.4 µM (inactive) | > 100 µM (inactive) | > 100 µM (inactive) | > 100 µM (inactive) | > 100 µM (inactive) | > 100 µM (inactive) | > 100 µM (inactive) | > 100 µM (inactive) | > 100 µM (inactive) | > 100 µM (inactive) | > 100 µM (inactive) | > 100 µM (inactive) | > 100 µM (inactive) | > 100 µM (inactive) | > 100 µM (inactive) | > 100 µM (inactive) | – | > 100 µM (inactive)
CCOC(=O)c1cc2c3c(cc(OC)c2[nH]1)N(C(=O)OCC)CC3 | > 100 µM (inactive) | > 100 µM (inactive) | > 100 µM (inactive) | > 100 µM (inactive) | > 100 µM (inactive) | > 100 µM (inactive) | > 100 µM (inactive) | > 100 µM (inactive) | > 100 µM (inactive) | > 100 µM (inactive) | > 100 µM (inactive) | > 100 µM (inactive) | – | > 100 µM (inactive) | 86.1 µM (inactive) | > 100 µM (inactive) | > 100 µM (inactive) | > 100 µM (inactive) | > 100 µM (inactive) | > 100 µM (inactive)
